Measurements reported in PubChem BioAssay (NCI).
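Compound exposure: 48 hours, 5 concentrations, 96-well plates. At the GI50, growth is halved. The concentration for full growth arrest is given as TGI.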

Columns and labels:
Assay in all cases: NCI-60 cell line screen, 48 h
[1] = system: A498 renal
[2] = system: KM12 colon
[3] = system: MALME-3M melanoma
[4] = system: MCF7 breast
[5] = system: MOLT-4 leukemia
[6] = system: NCI-H460 lung
[7] = system: OVCAR-4 ovarian
[8] = system: SF-539 CNS
[9] = system: SW-620 colon
[10] = system: U251 CNS

Structure (SMILES): CC(C)(C)[Si](C)(C)Oc1ccc(C2CNC(=O)C23CCC(=O)N3Cc2ccccc2)cc1 (stereo not given)
- TGI [1]: 25.1 µM
- TGI [2]: > 100 µM
- TGI [3]: 48.4 µM
- TGI [4]: 17.6 µM
- TGI [5]: > 100 µM
- TGI [6]: 20.8 µM
- TGI [7]: 29.1 µM
- TGI [8]: 30.7 µM
- TGI [9]: 31.1 µM
- TGI [10]: 36.2 µM

Structure (SMILES): NCCCn1c2c(c3ccc([N+](=O)[O-])cc3c1=O)C(=O)c1ccccc1-2
- GI50 [1]: 0.277 µM
- TGI [1]: 1.45 µM
- GI50 [2]: 0.0892 µM
- TGI [2]: 1.23 µM
- GI50 [4]: 0.0122 µM
- TGI [4]: > 50 µM
- GI50 [5]: 0.114 µM
- TGI [5]: > 50 µM
- GI50 [6]: 0.00887 µM
- TGI [6]: > 50 µM
- GI50 [7]: 0.116 µM
- TGI [7]: 0.47 µM
- GI50 [8]: 0.138 µM
- TGI [8]: 0.596 µM
- GI50 [9]: 0.0215 µM
- TGI [9]: 1.24 µM
- GI50 [10]: 0.005 µM
- TGI [10]: 0.0534 µM

Structure (SMILES): CC(=O)NNc1nc(-c2ccc([N+](=O)[O-])cc2)c(C#N)c(=O)n1C
- TGI [1]: 75.5 µM
- TGI [2]: > 100 µM
- TGI [3]: > 100 µM
- TGI [4]: 97.3 µM
- TGI [5]: > 100 µM
- TGI [6]: > 100 µM
- TGI [7]: 52.7 µM
- TGI [8]: 35.1 µM
- TGI [9]: > 100 µM
- TGI [10]: 50 µM

Structure (SMILES): COc1cc(C2CC(c3cccc(Nc4ccncc4)c3)=NN2c2ccc(Cl)cc2)cc(OC)c1OC (stereo not given)
- GI50 [1]: 1.32 µM
- TGI [1]: 6.26 µM
- GI50 [2]: 1.67 µM
- TGI [2]: 3.31 µM
- GI50 [3]: 1.66 µM
- TGI [3]: 3.11 µM
- GI50 [4]: 1.72 µM
- TGI [4]: 3.61 µM
- GI50 [6]: 1.69 µM
- TGI [6]: 3.13 µM
- GI50 [7]: 1.62 µM
- TGI [7]: 3.08 µM
- GI50 [8]: 1.64 µM
- TGI [8]: 3.05 µM
- GI50 [9]: 1.68 µM
- TGI [9]: 3.19 µM

Structure (SMILES): CCOC(=O)c1c2c(n(Cc3ccccc3)c1C)C(=O)C(=O)c1ccccc1-2
- GI50 [1]: 2.84 µM
- TGI [1]: 5.67 µM
- TGI [2]: 3.02 µM
- TGI [3]: 0.191 µM
- TGI [5]: 1.8 µM
- TGI [6]: 1.5 µM
- TGI [8]: 0.521 µM
- TGI [9]: 1.15 µM
- TGI [10]: 2.03 µM

Structure (SMILES): Oc1cn(-c2ccc(Cl)cc2)nc1-c1n[nH]c(=S)n1-c1ccccc1
- TGI [1]: 37.5 µM
- TGI [2]: 31.8 µM
- TGI [3]: 62.9 µM
- TGI [4]: 21.9 µM
- TGI [5]: > 100 µM
- TGI [6]: 59.4 µM
- TGI [7]: > 100 µM
- TGI [8]: 23.1 µM
- TGI [9]: 20.4 µM
- TGI [10]: 30.4 µM

Structure (SMILES): Cc1cc2c(cc1C(=O)c1ccc(N)cc1)OCO2
- TGI [2]: > 100 µM
- TGI [3]: > 100 µM
- TGI [4]: 53.8 µM
- TGI [5]: > 100 µM
- TGI [6]: > 100 µM
- TGI [8]: 79.7 µM
- TGI [9]: > 100 µM
- TGI [10]: > 100 µM

Structure (SMILES): CN(C)C(=O)/C=C/c1c[nH]c(=O)[nH]c1=O
- TGI [1]: > 500 µM
- TGI [2]: > 500 µM
- TGI [3]: > 500 µM
- TGI [4]: > 500 µM
- TGI [5]: > 500 µM
- TGI [6]: > 500 µM
- TGI [7]: > 500 µM
- TGI [8]: > 500 µM
- TGI [9]: > 500 µM
- TGI [10]: > 500 µM

Structure (SMILES): COc1ccc(-c2nc3ncccn3c2-c2ccc(SC)cc2)cc1
- TGI [2]: 13.3 µM
- TGI [5]: > 100 µM
- TGI [6]: 7.87 µM
- TGI [7]: > 100 µM
- TGI [8]: 5.85 µM
- TGI [9]: > 100 µM
- TGI [10]: 29 µM

Structure (SMILES): COc1ccc2c(c1)CCCN2CCCCCCCCCCN(CCC(C)C)CCC(C)C
- TGI [1]: 31 µM
- TGI [2]: 17.4 µM
- TGI [3]: 28.1 µM
- TGI [5]: 22.6 µM
- TGI [6]: 24.3 µM
- TGI [7]: 19.4 µM
- TGI [8]: 11.1 µM
- TGI [9]: 26.2 µM
- TGI [10]: 26.6 µM

Structure (SMILES): NCCc1cc(O)c(O)cc1O
- TGI [1]: > 100 µM
- TGI [2]: 58.5 µM
- TGI [3]: > 74.1 µM
- TGI [4]: 44.4 µM
- TGI [5]: 70.7 µM
- TGI [6]: 80.4 µM
- GI50 [7]: 12.3 µM
- TGI [7]: 25.6 µM
- TGI [8]: 44.3 µM
- TGI [9]: 40 µM
- GI50 [10]: 14 µM
- TGI [10]: 28.5 µM

Structure (SMILES): CCc1nc(N)nc(N)c1-c1ccc([N+](C)(C)C)cc1
- TGI [1]: > 100 µM
- TGI [2]: > 100 µM
- TGI [4]: > 100 µM
- TGI [5]: > 100 µM
- TGI [6]: > 100 µM
- TGI [7]: > 100 µM
- TGI [8]: > 100 µM
- TGI [9]: > 100 µM
- TGI [10]: > 100 µM

Structure (SMILES): COc1cc(/C=C/C(=O)Oc2ccc(NC(C)=O)cc2)ccc1C(=O)O/C=C/c1ccccc1
- TGI [1]: > 100 µM
- TGI [2]: > 100 µM
- TGI [3]: > 100 µM
- TGI [4]: > 100 µM
- TGI [5]: > 100 µM
- TGI [6]: > 100 µM
- TGI [7]: > 100 µM
- TGI [8]: > 100 µM
- TGI [9]: > 100 µM
- TGI [10]: > 100 µM

Structure (SMILES): O=C1NI(C#Cc2ccccc2)c2ccccc21
- TGI [1]: > 100 µM
- TGI [2]: > 100 µM
- TGI [3]: > 100 µM
- TGI [4]: 94.3 µM
- TGI [5]: > 100 µM
- TGI [6]: > 100 µM
- TGI [7]: > 100 µM
- TGI [8]: > 100 µM
- TGI [9]: > 100 µM
- TGI [10]: > 100 µM

Structure (SMILES): C[C@H]1C(=O)O[C@@H]2CCN3CC=C(COC(=O)[C@](C)(O)[C@@]1(C)O)[C@H]23
- TGI [1]: > 100 µM
- TGI [2]: > 100 µM
- TGI [4]: > 100 µM
- TGI [5]: > 100 µM
- TGI [7]: > 100 µM
- TGI [8]: > 100 µM
- TGI [9]: > 100 µM
- TGI [10]: > 100 µM

Structure (SMILES): COc1ccc(/C(Cl)=C(\C=O)c2ccc(OC)cc2)cc1
- TGI [1]: > 100 µM
- TGI [3]: > 100 µM
- TGI [5]: > 100 µM
- TGI [6]: > 100 µM
- TGI [7]: > 100 µM
- TGI [8]: > 100 µM
- TGI [9]: > 100 µM
- TGI [10]: > 100 µM

Structure (SMILES): Nc1n[nH]c(=O)c2c1c(I)cn2C1OC(CO)C(O)C1O (stereo not given)
- TGI [1]: > 100 µM
- TGI [2]: > 100 µM
- TGI [3]: 17.3 µM
- TGI [5]: 2.29 µM
- TGI [6]: 14.1 µM
- TGI [7]: 14.4 µM
- TGI [9]: > 100 µM
- TGI [10]: 4.19 µM

Structure (SMILES): O=P1(c2ccccc2)Nc2ccccc2SSc2ccccc2N1
- TGI [1]: 41.2 µM
- TGI [2]: 30.4 µM
- TGI [3]: 36.9 µM
- TGI [4]: 37.5 µM
- TGI [5]: 49.9 µM
- TGI [6]: 33.8 µM
- TGI [7]: 33.6 µM
- TGI [8]: 34.3 µM
- TGI [9]: 33.7 µM
- TGI [10]: 30.4 µM

Structure (SMILES): O=C(Nc1ccc([N+](=O)[O-])cc1[N+](=O)[O-])C(=O)C(C(=O)c1ccc2ccccc2c1)C1OC(=O)c2ccccc21 (stereo not given)
- TGI [1]: 52.7 µM
- TGI [2]: 40.3 µM
- TGI [5]: 62.2 µM
- TGI [6]: 28.9 µM
- TGI [7]: 60.3 µM
- TGI [8]: 18.6 µM
- TGI [9]: 30.9 µM
- TGI [10]: 16.9 µM
